{
  "source": "ChEMBL document CHEMBL1134391",
  "about": "“Design, synthesis, and structural analysis of influenza neuraminidase inhibitors containing pyrrolidine cores” (J Med Chem, 2001)",
  "key": {"Neuraminidase": {"target": "Neuraminidase (Influenza B virus (strain B/Lee/1940), UniProt P03474)", "sequence (P03474 whole entry)": "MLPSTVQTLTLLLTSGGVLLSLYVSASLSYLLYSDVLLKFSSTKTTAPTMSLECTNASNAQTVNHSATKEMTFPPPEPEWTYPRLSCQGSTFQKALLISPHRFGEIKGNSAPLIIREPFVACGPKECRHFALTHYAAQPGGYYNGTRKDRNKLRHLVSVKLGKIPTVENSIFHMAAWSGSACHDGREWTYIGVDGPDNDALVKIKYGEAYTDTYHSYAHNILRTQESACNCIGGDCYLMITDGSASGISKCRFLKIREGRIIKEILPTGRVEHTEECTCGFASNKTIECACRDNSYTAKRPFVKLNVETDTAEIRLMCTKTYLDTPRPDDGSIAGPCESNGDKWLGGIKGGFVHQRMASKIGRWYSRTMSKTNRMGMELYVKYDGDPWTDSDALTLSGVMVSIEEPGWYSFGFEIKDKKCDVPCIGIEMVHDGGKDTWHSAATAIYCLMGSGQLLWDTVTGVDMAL", "assay": "Inhibitory activity was determined against Neuraminidase B/Memphis"}, "influenza virus b [1]": {"system": "influenza virus b", "assay": "Inhibitory activity was determined against Neuraminidase B/Memphis at 1 mM concentration"}, "influenza virus b [2]": {"system": "influenza virus b", "assay": "Inhibitory activity was determined against Neuraminidase B/Memphis at 0.5 mM concentration"}},
  "data": [
    {"smiles": "CCN(C(=O)N1C[C@@H](C(=O)O)[C@@H](N)[C@@H]1CNC(C)=O)C(C)C", "values": [
      {"measurement": "IC50", "setting": "Neuraminidase", "value": 340, "unit": "µM"}
    ]},
    {"smiles": "CCC(=O)NC[C@H]1[C@H](N)[C@H](C(=O)O)CN1C(=O)N(CC)C(C)C", "values": [
      {"measurement": "inhibition", "setting": "influenza virus b [1]", "value": 26, "unit": "%"}
    ]},
    {"smiles": "CCN(C(=O)N1C[C@@H](C(=O)O)[C@@H](N)[C@@H]1CNC(=O)C(F)(F)F)C(C)C", "note": "[A-192558]", "values": [
      {"measurement": "IC50", "setting": "Neuraminidase", "value": 8, "unit": "µM"}
    ]},
    {"smiles": "CCN(C(=O)N1C[C@@H](C(=O)O)[C@@H](N)[C@@H]1CNS(C)(=O)=O)C(C)C", "values": [
      {"measurement": "inhibition", "setting": "influenza virus b [2]", "value": 38, "unit": "%"}
    ]}
  ]
}
